Source: patent US20240391862A1, “(1,4,5-TRISUBSTITUTED-1H-PYRAZOL-3-YL)OXY-2-ALKOXY ALKYL ACIDS AND THEIR DERIVATIVES, THEIR SALTS AND THEIR USE AS HERBICIDAL AGENTS” (Bayer AKtiengesellschaft, priority 2021, published 2024)

Assays:
ZEAMX = assay: Post-emergence herbicidal effect and crop plant compatibility, greenhouse pot test; format: in vivo, Zea mays; conditions: one-leaf stage, rated visually after about 3 weeks vs untreated controls
Summary of the method: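 Greenhouse pot test: weeds and crops sown in sandy loam, sprayed post-emergence at one-leaf stage (2–3 weeks after sowing) with WP or EC formulations plus 0.5% additive at 600 l/ha water, rates 20–320 g/ha. Visual rating about 3 weeks later versus untreated controls (100% = dead, 0% = as control).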

ABUTH = assay: Post-emergence herbicidal effect, greenhouse pot test; format: in vivo, Abutilon theophrasti; conditions: visual rating about 3 weeks after treatment
Summary of the method: (§1)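 Sandy loam pots, greenhouse. One-leaf stage (2–3 wk after sowing) foliar spray; WP/EC in water + 0.5% additive, 600 l/ha; 20–320 g/ha. Visual score ~3 wk, 0–100% vs untreated.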

ALOMY = assay: as above; format: in vivo, Alopecurus myosuroides; conditions: visual rating about 3 weeks after treatment
Summary of the method: as §1

AMARE = assay: as above; format: in vivo, Amaranthus retroflexus; conditions: visual rating about 3 weeks after treatment
Summary of the method: as §1

AVEFA = assay: as above; format: in vivo, Avena fatua; conditions: visual rating about 3 weeks after treatment
Summary of the method: as §1

DIGSA = assay: as above; format: in vivo, Digitaria sanguinalis; conditions: visual rating about 3 weeks after treatment
Summary of the method: as §1

ECHCG = assay: as above; format: in vivo, Echinochloa crus-galli
Summary of the method: as §1

LOLRI = assay: as above; format: in vivo, Lolium rigidum
Summary of the method: as §1

MATIN = assay: as above; format: in vivo, Tripleurospermum inodorum
Summary of the method: as §1

PHBPU = assay: as above; format: in vivo, Ipomoea purpurea
Summary of the method: as §1

POLCO = assay: as above; format: in vivo, Fallopia convolvulus
Summary of the method: as §1

SETVI = assay: as above; format: in vivo, Setaria viridis
Summary of the method: as §1

VERPE = assay: as above; format: in vivo, Veronica persica
Summary of the method: as §1

VIOTR = assay: as above; format: in vivo, Viola tricolor
Summary of the method: as §1

KCHSC = assay: as above; format: in vivo
Summary of the method: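 Greenhouse plants in sandy loam, sprayed post-emergence at the one-leaf stage (2–3 weeks after sowing) with WP or EC formulations in water plus 0.5% additive at 600 l/ha. Rates 20 to 320 g/ha. Activity rated visually after about 3 weeks against untreated controls (0% like control, 100% dead).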

[1] = Amaranthus retroflexus, 504 h, 320 g/ha, read-out: Post-emergence effect against AMARE
[2] = 504 h, read-out: Post-emergence effect against KCHSC in %

COC(=O)CCOC(=O)C(OC)Oc1nn(-c2ccccc2F)c(-c2ccc(F)nc2)c1C1CC1 (single isomer, unassigned) [Example I-74]
80%: Post-emergence effect against ABUTH (ABUTH; 20 g/ha) | Post-emergence effect against ABUTH (ABUTH; 80 g/ha) | Post-emergence effect against AMARE (AMARE; 20 g/ha) | Post-emergence effect against AMARE (AMARE; 80 g/ha) | Post-emergence effect against AMARE (AMARE; 320 g/ha) | Post-emergence effect against DIGSA (DIGSA; 80 g/ha) | Post-emergence effect against MATIN in % (MATIN; 80 g/ha) | Post-emergence effect against MATIN in % (MATIN; 320 g/ha) | Post-emergence effect against PHBPU in % (PHBPU; 20 g/ha) | Post-emergence effect against VIOTR in % (VIOTR; 20 g/ha)
0%: Post-emergence effect at 20 g/ha against ZEAMX in % (ZEAMX)
90%: Post-emergence effect against ABUTH (ABUTH; 320 g/ha) | Post-emergence effect against ALOMY (ALOMY; 320 g/ha) | Post-emergence effect against AVEFA (AVEFA; 80 g/ha) | Post-emergence effect against AVEFA (AVEFA; 320 g/ha) | Post-emergence effect against DIGSA (DIGSA; 320 g/ha) | Post-emergence effect against ECHCG (ECHCG; 20 g/ha, visual rating about 3 weeks after treatment) | Post-emergence effect against ECHCG in % (ECHCG; 80 g/ha) | Post-emergence effect against ECHCG in % (ECHCG; 320 g/ha) | Post-emergence effect against LOLRI in % (LOLRI; 320 g/ha) | Post-emergence effect against PHBPU in % (PHBPU; 80 g/ha) | Post-emergence effect against PHBPU in % (PHBPU; 320 g/ha) | Post-emergence effect against POLCO in % (POLCO; 320 g/ha) | Post-emergence effect against SETVI in % (SETVI; 80 g/ha) | Post-emergence effect against SETVI in % (SETVI; 320 g/ha) | Post-emergence effect against VERPE in % (VERPE; 80 g/ha) | Post-emergence effect against VERPE in % (VERPE; 320 g/ha) | Post-emergence effect against VIOTR in % (VIOTR; 80 g/ha) | Post-emergence effect against VIOTR in % (VIOTR; 320 g/ha) | Post-emergence effect against KCHSC in % (KCHSC; 320 g/ha)

COC(=O)CCOC(=O)C(OC)Oc1nn(-c2ccccc2F)c(-c2ccc(F)nc2)c1C1CC1 (single isomer, unassigned) [Example I-75]
90%: Post-emergence effect against ABUTH (ABUTH; 320 g/ha) | Post-emergence effect against AMARE (AMARE; 320 g/ha) | Post-emergence effect against AVEFA (AVEFA; 320 g/ha) | Post-emergence effect against ECHCG in % (ECHCG; 80 g/ha) | Post-emergence effect against ECHCG in % (ECHCG; 320 g/ha) | Post-emergence effect against LOLRI in % (LOLRI; 320 g/ha) | Post-emergence effect against PHBPU in % (PHBPU; 320 g/ha) | Post-emergence effect against SETVI in % (SETVI; 320 g/ha) | Post-emergence effect against VERPE in % (VERPE; 320 g/ha) | Post-emergence effect against VIOTR in % (VIOTR; 320 g/ha) | Post-emergence effect against KCHSC in % (KCHSC; 320 g/ha)
0%: Post-emergence effect at 20 g/ha against ZEAMX in % (ZEAMX) | Post-emergence effect at 80 g/ha against ZEAMX in % (ZEAMX)
80%: Post-emergence effect against ABUTH (ABUTH; 20 g/ha) | Post-emergence effect against ABUTH (ABUTH; 80 g/ha) | Post-emergence effect against ALOMY (ALOMY; 320 g/ha) | Post-emergence effect against DIGSA (DIGSA; 80 g/ha) | Post-emergence effect against DIGSA (DIGSA; 320 g/ha) | Post-emergence effect against LOLRI in % (LOLRI; 80 g/ha) | Post-emergence effect against MATIN in % (MATIN; 80 g/ha) | Post-emergence effect against MATIN in % (MATIN; 320 g/ha) | Post-emergence effect against PHBPU in % (PHBPU; 80 g/ha) | Post-emergence effect against POLCO in % (POLCO; 320 g/ha) | Post-emergence effect against SETVI in % (SETVI; 80 g/ha) | Post-emergence effect against VERPE in % (VERPE; 80 g/ha) | Post-emergence effect against VIOTR in % (VIOTR; 80 g/ha)

COC(Oc1nn(-c2ncccc2F)c(-c2ccc(F)nc2)c1C1CC1)C(=O)O (stereo not drawn) [Example I-90]
90%: Post-emergence effect against ABUTH (ABUTH; 320 g/ha) | Post-emergence effect against ALOMY (ALOMY; 320 g/ha) | Post-emergence effect against AVEFA (AVEFA; 320 g/ha) | Post-emergence effect against ECHCG in % (ECHCG; 80 g/ha) | Post-emergence effect against ECHCG in % (ECHCG; 320 g/ha) | Post-emergence effect against LOLRI in % (LOLRI; 320 g/ha) | Post-emergence effect against PHBPU in % (PHBPU; 320 g/ha) | Post-emergence effect against SETVI in % (SETVI; 320 g/ha) | Post-emergence effect against VIOTR in % (VIOTR; 320 g/ha) | Post-emergence effect against KCHSC in % (KCHSC; 320 g/ha) | pest or weed control at 80 g/ha (KCHSC; [2])
80%: pest or weed control at 320 g/ha (AMARE; [1]) | Post-emergence effect against DIGSA (DIGSA; 320 g/ha) | Post-emergence effect against POLCO in % (POLCO; 320 g/ha) | Post-emergence effect against VERPE in % (VERPE; 320 g/ha) | pest or weed control at 20 g/ha (KCHSC; [2])
0%: Post-emergence effect at 20 g/ha against ZEAMX in % (ZEAMX) | Post-emergence effect at 80 g/ha against ZEAMX in % (ZEAMX) | Post-emergence effect at 320 g/ha against ZEAMX in % (ZEAMX; 320 g/ha)

CCOC(=O)C(OC)Oc1nn(-c2ncccc2F)c(-c2cncc(F)c2)c1C1CC1 (stereo not drawn) [Example I-113]
80%: pest or weed control at 20 g/ha (AMARE; Amaranthus retroflexus, 504 h, 20 g/ha, read-out: Post-emergence effect against AMARE) | pest or weed control at 80 g/ha (AMARE; Amaranthus retroflexus, 504 h, 80 g/ha, read-out: Post-emergence effect against AMARE) | pest or weed control at 320 g/ha (AMARE; [1]) | pest or weed control at 20 g/ha (AVEFA; Avena fatua, 504 h, 20 g/ha, read-out: Post-emergence effect against AVEFA) | pest or weed control at 80 g/ha (MATIN; Tripleurospermum inodorum, 504 h, 80 g/ha, read-out: Post-emergence effect against MATIN in %) | pest or weed control at 320 g/ha (MATIN; Tripleurospermum inodorum, 504 h, 320 g/ha, read-out: Post-emergence effect against MATIN in %) | pest or weed control at 80 g/ha (POLCO; Fallopia convolvulus, 504 h, 80 g/ha, read-out: Post-emergence effect against POLCO in %) | pest or weed control at 320 g/ha (POLCO; Fallopia convolvulus, 504 h, 320 g/ha, read-out: Post-emergence effect against POLCO in %) | pest or weed control at 20 g/ha (VERPE; Veronica persica, 504 h, 20 g/ha, read-out: Post-emergence effect against VERPE in %)
90%: pest or weed control at 20 g/ha (ABUTH; Abutilon theophrasti, 504 h, 20 g/ha, read-out: Post-emergence effect against ABUTH) | pest or weed control at 80 g/ha (ABUTH; Abutilon theophrasti, 504 h, 80 g/ha, read-out: Post-emergence effect against ABUTH) | pest or weed control at 320 g/ha (ABUTH; Abutilon theophrasti, 504 h, 320 g/ha, read-out: Post-emergence effect against ABUTH) | pest or weed control at 320 g/ha (DIGSA; Digitaria sanguinalis, 504 h, 320 g/ha, read-out: Post-emergence effect against DIGSA) | pest or weed control at 20 g/ha (ECHCG; Echinochloa crus-galli, 504 h, 20 g/ha, visual rating about 3 weeks after treatment, read-out: Post-emergence effect against ECHCG) | pest or weed control at 80 g/ha (ECHCG; Echinochloa crus-galli, 504 h, 80 g/ha, read-out: Post-emergence effect against ECHCG in %) | pest or weed control at 320 g/ha (ECHCG; Echinochloa crus-galli, 504 h, 320 g/ha, read-out: Post-emergence effect against ECHCG in %) | pest or weed control at 80 g/ha (LOLRI; Lolium rigidum, 504 h, 80 g/ha, read-out: Post-emergence effect against LOLRI in %) | pest or weed control at 20 g/ha (PHBPU; Ipomoea purpurea, 504 h, 20 g/ha, read-out: Post-emergence effect against PHBPU in %) | pest or weed control at 80 g/ha (PHBPU; Ipomoea purpurea, 504 h, 80 g/ha, read-out: Post-emergence effect against PHBPU in %) | pest or weed control at 20 g/ha (SETVI; Setaria viridis, 504 h, 20 g/ha, read-out: Post-emergence effect against SETVI in %) | pest or weed control at 80 g/ha (SETVI; Setaria viridis, 504 h, 80 g/ha, read-out: Post-emergence effect against SETVI in %) | pest or weed control at 320 g/ha (SETVI; Setaria viridis, 504 h, 320 g/ha, read-out: Post-emergence effect against SETVI in %) | pest or weed control at 80 g/ha (VERPE; Veronica persica, 504 h, 80 g/ha, read-out: Post-emergence effect against VERPE in %) | pest or weed control at 320 g/ha (VERPE; Veronica persica, 504 h, 320 g/ha, read-out: Post-emergence effect against VERPE in %) | pest or weed control at 20 g/ha (VIOTR; Viola tricolor, 504 h, 20 g/ha, read-out: Post-emergence effect against VIOTR in %) | pest or weed control at 80 g/ha (VIOTR; Viola tricolor, 504 h, 80 g/ha, read-out: Post-emergence effect against VIOTR in %) | pest or weed control at 320 g/ha (VIOTR; Viola tricolor, 504 h, 320 g/ha, read-out: Post-emergence effect against VIOTR in %) | pest or weed control at 20 g/ha (KCHSC; [2]) | pest or weed control at 80 g/ha (KCHSC; [2]) | pest or weed control at 320 g/ha (KCHSC; 504 h, 320 g/ha, read-out: Post-emergence effect against KCHSC in %)
100%: pest or weed control at 80 g/ha (ALOMY; Alopecurus myosuroides, 504 h, 80 g/ha, read-out: Post-emergence effect against ALOMY) | pest or weed control at 320 g/ha (ALOMY; Alopecurus myosuroides, 504 h, 320 g/ha, read-out: Post-emergence effect against ALOMY) | pest or weed control at 80 g/ha (AVEFA; Avena fatua, 504 h, 80 g/ha, read-out: Post-emergence effect against AVEFA) | pest or weed control at 320 g/ha (AVEFA; Avena fatua, 504 h, 320 g/ha, read-out: Post-emergence effect against AVEFA) | pest or weed control at 320 g/ha (LOLRI; Lolium rigidum, 504 h, 320 g/ha, read-out: Post-emergence effect against LOLRI in %) | pest or weed control at 320 g/ha (PHBPU; Ipomoea purpurea, 504 h, 320 g/ha, read-out: Post-emergence effect against PHBPU in %)
